Assay results from patent publication US7531543B2, “Phenylpiperazine cycloalkanol derivatives and methods of their use” (Wyeth, priority 2003, dated 2009).
pEC50: −log10 of the molar value. Structures can show the parent of a compound that is named as a salt.

Biological target: T1, human hNET (Homo sapiens, UniProt P23975)
T1 construct: expressed in transfected cells; host or cells: MDCK-Net6 (MDCK cells stably transfected with hNET)
Test: Norepinephrine (NE) uptake assay in MDCK-Net6 cells
Assay type: cell-based
Settings: [3H]NE uptake, MDCK-Net6 cells stably transfected with hNET; for pEC50: test range 1 to 10,000 nM
Protocol: MDCK-Net6 cells, stably transfected with human hNET (Pacholczyk, T., R. D. Blakely, and S. G. Amara, Nature, 1991, 350(6316): p. 350-4) were cultured in growth medium containing high glucose DMEM (Gibco, Cat. No. 11995), 10% FBS (dialyzed, heat-inactivated, US Bio-Technologies, Lot FBD1129HI) and 500 µg/ml G418 (Gibco, Cat. No. 10131). Cells were plated at 300,000/T75 flask and cells were split twice weekly. The JAR cell line (human placental choriocarcinoma) was purchased from ATCC (Cat. No. HTB-144). The cells were cultured in growth medium containing RPMI 1640 (Gibco, Cat. No. 72400), 10% FBS (Irvine, Cat. No. 3000), 1% sodium pyruvate (Gibco, Cat. No. 1136) and 0.25% glucose. Cells were plated at 250,000 cells/T75 flask and split twice weekly. For all assays, cells were plated in Wallac 96-well sterile plates (PerkinElmer, Cat. No. 3983498).
Norepinephrine (NE) Uptake Assay
On day 1, cells were plated at 3,000 cells/well in growth medium and maintained in a cell incubator (37° C., 5% CO2). On day 2, growth medium was replaced with 200 μl of assay buffer (25 mM HEPES; 120 mM NaCl; 5 mM KCl; 2.5 mM CaCl2; 1.2 mM MgSO4; 2 mg/ml glucose (pH 7.4, 37° C.)) containing 0.2 mg/ml ascorbic acid and 10 μM pargyline. Plates containing cells with 200 μl of assay buffer were equilibrated for 10 minutes at 37° C. prior to addition of compounds. A stock solution of desipramine was prepared in DMSO (10 mM) and delivered to triplicate wells containing cells for a final test concentration of 1 μM. Data from these wells were used to define non-specific NE uptake (minimum NE uptake). Test compounds were prepared in DMSO (10 mM) and diluted in assay buffer according to test range (1 to 10,000 nM). Twenty-five microliters of assay buffer (maximum NE uptake) or test compound were added directly to triplicate wells containing cells in 200 μl of assay buffer. The cells in assay buffer with test compounds were incubated for 20 minutes at 37° C. To initiate the NE uptake, [^3H]NE diluted in assay buffer (120 nM final assay concentration) was delivered in 25 μl aliquots to each well and the plates were incubated for 5 minutes (37° C.). The reaction was terminated by decanting the supernatant from the plate. The plates containing cells were washed twice with 200 μl assay buffer (37° C.) to remove free radioligand. The plates were then inverted, left to dry for 2 minutes, then reinverted and air-dried for an additional 10 minutes. The cells were lysed in 25 μl of 0.25 N NaOH solution (4° C.), placed on a shake table and vigorously shaken for 5 minutes. After cell lysis, 75 μl of scintillation cocktail was added to each well and the plates were sealed with film tape. The plates were returned to the shake table and vigorously shaken for a minimum of 10 minutes to ensure adequate partitioning of organic and aqueous solutions. The plates were counted in a Wallac Microbeta counter (PerkinElmer) to collect the raw cpm data.
For each experiment, a data stream of cpm values collected from the Wallac Microbeta counter was downloaded to a Microsoft Excel statistical application program. Calculations of EC50 values were made using the transformed-both-sides logistic dose response program written by Wyeth Biometrics Department. The statistical program uses mean cpm values from wells representing maximum binding or uptake (assay buffer) and mean cpm values from wells representing minimum binding or uptake ((1 μM desipramine (hNET) or 1 μM paroxetine (hSERT)). Estimation of the EC50 value was completed on a log scale and the line was fit between the maximum and minimum binding or uptake values. All graphic data representation was generated by normalizing each data point to a mean percent based on the maximum and minimum binding or uptake values. The EC50 values reported from multiple experiments were calculated by pooling the raw data from each experiment and analyzing the pooled data as one experiment.

T1 sequence (P23975 whole entry): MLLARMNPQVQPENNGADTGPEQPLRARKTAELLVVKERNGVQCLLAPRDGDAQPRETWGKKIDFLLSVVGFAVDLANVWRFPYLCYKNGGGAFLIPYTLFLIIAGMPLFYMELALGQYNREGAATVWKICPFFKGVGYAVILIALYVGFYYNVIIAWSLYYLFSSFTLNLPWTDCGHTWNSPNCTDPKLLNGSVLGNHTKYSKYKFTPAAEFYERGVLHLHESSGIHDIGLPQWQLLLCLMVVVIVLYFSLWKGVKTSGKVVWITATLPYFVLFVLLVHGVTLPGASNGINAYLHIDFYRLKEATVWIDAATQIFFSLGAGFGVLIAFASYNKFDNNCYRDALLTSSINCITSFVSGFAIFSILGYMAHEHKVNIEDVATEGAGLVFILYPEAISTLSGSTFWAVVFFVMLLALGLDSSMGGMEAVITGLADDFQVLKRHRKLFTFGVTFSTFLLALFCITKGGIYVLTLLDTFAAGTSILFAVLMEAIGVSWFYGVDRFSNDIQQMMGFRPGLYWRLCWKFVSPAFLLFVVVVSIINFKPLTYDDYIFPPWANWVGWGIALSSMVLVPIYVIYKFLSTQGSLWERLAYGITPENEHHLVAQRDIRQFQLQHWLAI

Structure (SMILES)	inhibition at 1 µM (1 μM test compound) [%]	pEC50	% Inhibition @ 1 μM (hNET) (1 μM test compound) [%]
C[C@@H]1CN(CC(c2cccc(Cl)c2)C2(O)CCCCC2)C[C@H](C)N1 (stereo partly drawn) [Example 2, 1-{1-(3-chlorophenyl)-2-[(3R,5S)-3,5-dimethylpiperazin-1-yl]ethyl}cyclohexanol dihydrochloride]	97	6.82	–
OC1(C(CN2CCNCC2)c2cccc(Br)c2)CCCCC1 (stereo not drawn) [Example 3, 1-[1-(3-bromophenyl)-2-piperazin-1-ylethyl]cyclohexanol dihydrochloride]	96	7.00	–
C[C@H]1CN(CC(c2cccc(Cl)c2)C2(O)CCCCC2)CCN1 (stereo partly drawn) [Example 4, 1-{1-(3-chlorophenyl)-2-[(3S)-3-methylpiperazin-1-yl]ethyl}cyclohexanol dihydrochloride]	95	7.23	–
C[C@@H]1CN(CC(c2cccc(Cl)c2)C2(O)CCCCC2)CCN1 (stereo partly drawn) [Example 5, 1-{1-(3-chlorophenyl)-2-[(3R)-3-methylpiperazin-1-yl]ethyl}cyclohexanol dihydrochloride]	94	6.96	–
OC1(C(CN2CCNCC2)c2ccc(Cl)c(Cl)c2)CCCCC1 (stereo not drawn) [Example 6, 1-[1-(3,4-dichlorophenyl)-2-piperazin-1-ylethyl]cyclohexanol dihydrochloride]	87	6.68	–
OC1(C(CN2CCNCC2)c2cccc(Br)c2)CCCCCC1 (stereo not drawn) [Example 7, 1-[1-(3-bromophenyl)-2-piperazin-1-ylethyl]cycloheptanol dihydrochloride]	86	–	–
OC1(C(CN2CCNCC2)c2cccc(Cl)c2)CCCCCC1 (stereo not drawn) [Example 8, 1-[1-(3-chlorophenyl)-2-piperazin-1-ylethyl]cycloheptanol dihydrochloride]	81	–	–
OC1(C(CN2CCNCC2)c2cccc(F)c2)CCCCC1 (stereo not drawn) [Example 9, 1-[1-(3-fluorophenyl)-2-piperazin-1-ylethyl]cyclohexanol dihydrochloride]	79	6.14	–
OC1(C(CN2CCNCC2)c2cccc(Cl)c2)CCCC1 (stereo not drawn) [Example 10, 1-[1-(3-chlorophenyl)-2-piperazin-1-ylethyl]cyclopentanol dihydrochloride]	63	–	–
OC1(C(CN2CCNCC2)c2ccc(F)cc2)CCCCC1 (stereo not drawn) [Example 11, 1-[1-(4-fluorophenyl)-2-piperazin-1-ylethyl]cyclohexanol dihydrochloride]	60	5.19	–
OC1(C(CN2CCNCC2)c2ccc(Br)cc2)CCC1 (stereo not drawn) [Example 12, 1-[1-(4-bromophenyl)-2-piperazin-1-ylethyl]cyclobutanol dihydrochloride]	55	–	–
COc1ccc(C(CN2CCNCC2)C2(O)CCCC2)cc1Br (stereo not drawn) [Example 13, 1-[1-(3-bromo-4-methoxyphenyl)-2-piperazin-1-ylethyl]cyclopentanol dihydrochloride]	53	–	–
OC1(C(CN2CCNCC2)c2cccc(C(F)(F)F)c2)CCC1 (stereo not drawn) [Example 14, 1-{2-piperazin-1-yl-1-[3-(trifluoromethyl)phenyl]ethyl}cyclobutanol dihydrochloride]	27	–	–
CN1CCN(CC(c2cccc(C(F)(F)F)c2)C2(O)CCC2)CC1 (stereo not drawn) [Example 15, 1-{2-(4-methylpiperazin-1-yl)-1-[3-(trifluoromethyl)phenyl]ethyl}cyclobutanol dihydrochloride]	51	–	–
OC1(C(CN2CCNCC2)c2cccc(Br)c2)CCCC1 (stereo not drawn) [Example 16, 1-[1-(3-bromophenyl)-2-piperazin-1-ylethyl]cyclopentanol dihydrochloride]	51	–	–
OC1(C(CN2CCNCC2)c2ccc(Br)cc2)CCCCC1 (stereo not drawn) [Example 17, 1-[1-(4-bromophenyl)-2-piperazin-1-ylethyl]cyclohexanol dihydrochloride]	46	–	–

Structure (SMILES)	inhibition at 1 µM (1 μM test compound) [%]	pEC50	% Inhibition @ 1 μM (hNET) (1 μM test compound) [%]
OC1(C(CN2CCNCC2)c2ccc(Cl)cc2)CCC1 (stereo not drawn) [Example 18, 1-[1-(4-chlorophenyl)-2-piperazin-1-ylethyl]cyclobutanol dihydrochloride]	44	–	–
OC1(C(CN2CCNCC2)c2ccc(F)cc2)CCC1 (stereo not drawn) [Example 19, 1-[1-(4-fluorophenyl)-2-piperazin-1-ylethyl]cyclobutanol dihydrochloride]	43	–	–
Cl.Cl.OC1(C(CN2CCNCC2)c2ccc(Br)cc2)CCC1 (stereo not drawn) [Example 20, 1-[1-(4-bromophenyl)-2-piperazin-1-ylethyl]cyclobutanol dihydrochloride]	–	–	55
CN1CCN(CC(c2ccc(Br)cc2)C2(O)CCC2)CC1 (stereo not drawn) [Example 21, 1-[1-(4-bromophenyl)-2-(4-methylpiperazin-1-yl)ethyl]cyclobutanol dihydrochloride]	36	–	–
OC1(C(CN2CCNCC2)c2cccc(F)c2)CCC1 (stereo not drawn) [Example 22, 1-[1-(3-fluorophenyl)-2-piperazin-1-ylethyl]cyclobutanol dihydrochloride]	34	–	–
OC1(C(CN2CCNCC2)c2cccc(Cl)c2)CCC1 (stereo not drawn) [Example 23, 1-[1-(3-chlorophenyl)-2-piperazin-1-ylethyl]cyclobutanol dihydrochloride]	28	–	–
CN1CCN(CC(c2cccc(Cl)c2)C2(O)CCC2)CC1 (stereo not drawn) [Example 24, 1-[1-(3-chlorophenyl)-2-(4-methylpiperazin-1-yl)ethyl]cyclobutanol dihydrochloride]	34	–	–
OC1(C(CN2CCNCC2)c2ccccc2F)CCCCC1 (stereo not drawn) [Example 25, 1-[1-(2-fluorophenyl)-2-piperazin-1-ylethyl]cyclohexanol dihydrochloride]	31	–	–
OC1(C(CN2CCNCC2)c2ccc(Cl)cc2)CCCCC1 (stereo not drawn) [Example 26, 1-[1-(4-chlorophenyl)-2-piperazin-1-ylethyl]cyclohexanol dihydrochloride]	29	–	–
OC1(C(CN2CCNCC2)c2cccc(Br)c2)CCC1 (stereo not drawn) [Example 27, 1-[1-(3-bromophenyl)-2-piperazin-1-ylethyl]cyclobutanol dihydrochloride]	22	–	–
OC1(C(CN2CCNCC2)c2ccccc2F)CCC1 (stereo not drawn) [Example 28, 1-[1-(2-fluorophenyl)-2-piperazin-1-ylethyl]cyclobutanol dihydrochloride]	14	–	–
CN1CCN(CC(c2cccc(F)c2)C2(O)CCC2)CC1 (stereo not drawn) [Example 29, 1-[1-(3-fluorophenyl)-2-(4-methylpiperazin-1-yl)ethyl]cyclobutanol dihydrochloride]	12	–	–
CN1CCN(CC(c2ccc(Cl)cc2)C2(O)CCC2)CC1 (stereo not drawn) [Example 30, 1-[1-(4-chlorophenyl)-2-(4-methylpiperazin-1-yl)ethyl]cyclobutanol dihydrochloride]	-1	–	–
CN1CCN(CC(c2ccccc2F)C2(O)CCC2)CC1 (stereo not drawn) [Example 31, 1-[1-(2-fluorophenyl)-2-(4-methylpiperazin-1-yl)ethyl]cyclobutanol dihydrochloride]	-6	–	–
CN1CCN(CC(c2ccc(F)cc2)C2(O)CCC2)CC1 (stereo not drawn) [Example 32, 1-[1-(4-fluorophenyl)-2-(4-methylpiperazin-1-yl)ethyl]cyclobutanol dihydrochloride]	-10	–	–
OC1(C(CN2CCNCC2)c2ccccc2Br)CCCCC1 (stereo not drawn) [Example 33, 1-[1-(2-bromophenyl)-2-piperazin-1-ylethyl]cyclohexanol dihydrochloride]	35	–	–
